ChEMBL document CHEMBL1201862, “PubChem BioAssay data set” (2004)
The source made the active and inactive calls.

How the values were obtained:
Estrogen receptor beta = Estrogen receptor beta (Homo sapiens, UniProt Q92731); experiment: blockers of SRC-3 recruitment to ERβ – biochemical, ELISA, streptavidin-HRP readout, orthogonal assay, confirmation (AID 1060)
[1] = biological target: T1, Polyadenylate-binding protein 1 (Homo sapiens, UniProt P11940); experiment: MLLE binding blockers, Cy5 peptide tracer – biochemical, fluorescence polarization, Cy5-PAM2 peptide, secondary, miRNA deadenylation inhibitor project, dose response (AID 602260); assay type: functional; details: read-out: IC50_Mean
[2] = biological target: T1, Polyadenylate-binding protein 1; experiment: MLLE domain peptide-binding blockers, IC50 – biochemical, fluorescence polarization, FITC-PAM2 peptide, dose response (AID 602259); assay type: functional; details: read-out: IC50_Mean
Vero = experiment: mammalian cell viability reduction – secondary assay, cytotoxicity control for West Nile virus antiviral project, dose response (AID 1650); assay type: functional; details: Chlorocebus sabaeus
Leucine aminopeptidase = biological target: T2, Leucine aminopeptidase (Plasmodium falciparum 3D7, UniProt Q8IL11); experiment: P. falciparum M17LAP inhibitors, primary screen, biochemical, fluorogenic H-Leu-NHMec substrate, 1536-well (AID 1619); assay type: functional
T2 sequence (Q8IL11 whole entry): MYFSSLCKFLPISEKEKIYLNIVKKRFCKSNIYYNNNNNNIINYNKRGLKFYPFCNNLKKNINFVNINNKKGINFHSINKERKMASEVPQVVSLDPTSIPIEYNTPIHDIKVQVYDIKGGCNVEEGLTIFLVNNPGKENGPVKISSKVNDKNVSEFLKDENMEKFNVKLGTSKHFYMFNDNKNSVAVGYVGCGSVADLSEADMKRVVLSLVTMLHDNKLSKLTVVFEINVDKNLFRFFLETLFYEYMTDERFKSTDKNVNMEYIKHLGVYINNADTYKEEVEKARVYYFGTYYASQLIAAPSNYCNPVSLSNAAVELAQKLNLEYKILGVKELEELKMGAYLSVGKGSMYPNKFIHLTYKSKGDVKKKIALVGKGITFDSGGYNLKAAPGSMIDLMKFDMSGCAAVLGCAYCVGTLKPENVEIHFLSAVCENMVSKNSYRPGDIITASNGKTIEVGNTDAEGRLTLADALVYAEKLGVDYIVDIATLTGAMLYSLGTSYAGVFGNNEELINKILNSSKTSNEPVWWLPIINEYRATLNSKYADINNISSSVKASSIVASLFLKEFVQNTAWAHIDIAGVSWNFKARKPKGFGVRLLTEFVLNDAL

[3] = biological target: Glyceraldehyde-3-phosphate dehydrogenase (Homo sapiens, UniProt P04406)
[4] = luciferase reporter signal suppression in cells – H4 neuroglioma cells, luminescence, dose response (AID 1990); assay type: functional, cell-based
[5] = Luminescence Cell-Based Dose Response HTS to Identify Inhibitors of 5'UTR Stem-Loop Driven Prion Protein mRNA Translation in H4 Neuroglioblastoma Cells. [Related pubchem assays: 1827 (Project Summary), 1813 (Primary HTS)]; assay type: functional
[6] = alpha-synuclein stem-loop luciferase translation blockers – H4 neuroglioma cells, luminescence, confirmation (AID 1988); assay type: functional, cell-based
[7] = viability of uninfected HEp-2 cells – cell-based, HTS, cytotoxicity control for RSV inhibitor project, dose response (AID 2410); assay type: functional; details: human respiratory syncytial virus
[8] = A cytotoxicity screen of small molecule inhibitors of the PhoP region in Salmonella typhi identified in the primary screen. [Related pubchem assays: 1850, 1864, 1985 ]; assay type: functional
[9] = general mammalian cell viability loss – inhibitor set, cherry-pick, set 2, cytotoxicity control for miR-122 modulator project, dose response (AID 720697); assay type: functional, cell-based
[10] = biological target: T3, DNA repair protein RAD52 homolog (Homo sapiens, UniProt P43351); assay type: functional, biochemical
T3 sequence (P43351 whole entry): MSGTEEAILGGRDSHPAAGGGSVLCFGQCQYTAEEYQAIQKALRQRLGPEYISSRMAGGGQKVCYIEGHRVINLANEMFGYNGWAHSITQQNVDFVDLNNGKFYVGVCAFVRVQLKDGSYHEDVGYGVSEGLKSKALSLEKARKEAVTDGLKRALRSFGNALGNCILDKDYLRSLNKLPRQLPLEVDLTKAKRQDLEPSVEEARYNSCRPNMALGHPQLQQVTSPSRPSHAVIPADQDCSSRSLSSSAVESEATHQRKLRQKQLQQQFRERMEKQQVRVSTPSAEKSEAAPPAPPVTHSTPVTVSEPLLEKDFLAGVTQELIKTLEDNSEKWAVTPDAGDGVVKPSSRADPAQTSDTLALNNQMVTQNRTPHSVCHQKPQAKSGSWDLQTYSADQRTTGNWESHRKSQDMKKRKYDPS

[11] = biological target: T4, Histone-lysine N-methyltransferase NSD2 (Homo sapiens, UniProt O96028); assay type: biochemical
T4 sequence (O96028 whole entry): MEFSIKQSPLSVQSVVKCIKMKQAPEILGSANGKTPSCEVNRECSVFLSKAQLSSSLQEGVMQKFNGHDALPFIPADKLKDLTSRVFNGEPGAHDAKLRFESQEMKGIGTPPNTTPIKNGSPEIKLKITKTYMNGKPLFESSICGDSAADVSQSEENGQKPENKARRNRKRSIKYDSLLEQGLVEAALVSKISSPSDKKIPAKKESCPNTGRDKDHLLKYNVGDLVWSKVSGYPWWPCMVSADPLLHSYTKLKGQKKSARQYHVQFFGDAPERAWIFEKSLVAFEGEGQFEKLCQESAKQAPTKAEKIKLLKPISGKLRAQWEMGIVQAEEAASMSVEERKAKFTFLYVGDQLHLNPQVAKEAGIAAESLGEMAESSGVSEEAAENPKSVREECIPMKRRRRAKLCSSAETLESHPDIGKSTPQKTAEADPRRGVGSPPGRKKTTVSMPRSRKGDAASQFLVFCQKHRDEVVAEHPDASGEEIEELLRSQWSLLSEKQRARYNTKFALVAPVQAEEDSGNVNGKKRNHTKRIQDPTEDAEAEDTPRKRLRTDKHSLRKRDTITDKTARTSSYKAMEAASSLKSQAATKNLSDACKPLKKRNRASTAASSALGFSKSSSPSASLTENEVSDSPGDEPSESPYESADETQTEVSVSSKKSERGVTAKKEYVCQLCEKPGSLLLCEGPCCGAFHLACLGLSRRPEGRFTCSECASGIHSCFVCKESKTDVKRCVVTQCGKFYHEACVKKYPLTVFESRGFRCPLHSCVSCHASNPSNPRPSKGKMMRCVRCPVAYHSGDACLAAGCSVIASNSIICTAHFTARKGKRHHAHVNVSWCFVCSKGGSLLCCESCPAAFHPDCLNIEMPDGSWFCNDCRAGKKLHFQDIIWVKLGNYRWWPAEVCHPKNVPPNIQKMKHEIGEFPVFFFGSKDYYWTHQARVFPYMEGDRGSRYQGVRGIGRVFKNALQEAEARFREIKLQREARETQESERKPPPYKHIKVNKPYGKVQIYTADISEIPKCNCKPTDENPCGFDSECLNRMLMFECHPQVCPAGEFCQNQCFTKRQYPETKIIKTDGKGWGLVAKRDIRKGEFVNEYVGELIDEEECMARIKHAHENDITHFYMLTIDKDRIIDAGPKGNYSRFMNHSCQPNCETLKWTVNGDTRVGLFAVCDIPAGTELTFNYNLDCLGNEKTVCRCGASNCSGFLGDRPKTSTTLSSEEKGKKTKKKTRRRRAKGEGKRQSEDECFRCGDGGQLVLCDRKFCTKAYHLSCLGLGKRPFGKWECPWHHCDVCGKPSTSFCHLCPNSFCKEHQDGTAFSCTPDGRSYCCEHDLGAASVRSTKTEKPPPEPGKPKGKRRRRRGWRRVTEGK

[12] = biological target: T5, Ubiquitin-conjugating enzyme E2 N (Homo sapiens, UniProt P61088); assay type: functional;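 also: Dose-response confirmation in a TR-FRET assay detecting UBC13-driven polyubiquitin chain formation, inhibition measured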
T5 sequence (P61088 whole entry): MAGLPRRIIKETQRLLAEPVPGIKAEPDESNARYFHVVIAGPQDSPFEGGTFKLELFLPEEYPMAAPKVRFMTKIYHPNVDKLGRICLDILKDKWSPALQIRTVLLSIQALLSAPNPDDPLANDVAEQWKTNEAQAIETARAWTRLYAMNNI

Sequence of Glyceraldehyde-3-phosphate dehydrogenase (P04406 whole entry): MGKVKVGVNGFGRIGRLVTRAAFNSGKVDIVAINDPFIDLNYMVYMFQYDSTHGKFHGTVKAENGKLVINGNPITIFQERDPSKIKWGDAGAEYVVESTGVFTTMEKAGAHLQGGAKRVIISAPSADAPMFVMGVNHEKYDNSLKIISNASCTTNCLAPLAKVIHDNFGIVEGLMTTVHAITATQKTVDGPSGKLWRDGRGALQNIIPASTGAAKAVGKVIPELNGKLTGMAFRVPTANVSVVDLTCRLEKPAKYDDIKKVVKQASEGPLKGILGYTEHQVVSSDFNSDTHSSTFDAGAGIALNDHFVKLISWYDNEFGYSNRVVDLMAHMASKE
T1 sequence (P11940 whole entry, the tested form may be a part): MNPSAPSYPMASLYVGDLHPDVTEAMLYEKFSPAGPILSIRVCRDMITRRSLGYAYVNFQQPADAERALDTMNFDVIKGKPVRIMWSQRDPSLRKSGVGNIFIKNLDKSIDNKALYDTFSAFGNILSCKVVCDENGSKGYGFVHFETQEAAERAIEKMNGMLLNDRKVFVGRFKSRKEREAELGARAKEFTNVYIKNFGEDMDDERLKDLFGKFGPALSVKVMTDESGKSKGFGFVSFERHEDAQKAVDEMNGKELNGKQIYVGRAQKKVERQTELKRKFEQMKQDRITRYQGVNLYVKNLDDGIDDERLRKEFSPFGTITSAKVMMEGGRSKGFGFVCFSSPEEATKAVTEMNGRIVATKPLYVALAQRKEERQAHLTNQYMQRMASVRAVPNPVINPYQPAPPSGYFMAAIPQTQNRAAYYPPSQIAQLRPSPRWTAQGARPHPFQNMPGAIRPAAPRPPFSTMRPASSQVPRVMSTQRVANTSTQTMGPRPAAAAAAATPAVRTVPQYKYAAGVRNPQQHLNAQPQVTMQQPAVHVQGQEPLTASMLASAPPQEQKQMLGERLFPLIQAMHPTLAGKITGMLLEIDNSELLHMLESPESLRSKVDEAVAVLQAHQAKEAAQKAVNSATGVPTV
Sequence of Estrogen receptor beta (Q92731 whole entry): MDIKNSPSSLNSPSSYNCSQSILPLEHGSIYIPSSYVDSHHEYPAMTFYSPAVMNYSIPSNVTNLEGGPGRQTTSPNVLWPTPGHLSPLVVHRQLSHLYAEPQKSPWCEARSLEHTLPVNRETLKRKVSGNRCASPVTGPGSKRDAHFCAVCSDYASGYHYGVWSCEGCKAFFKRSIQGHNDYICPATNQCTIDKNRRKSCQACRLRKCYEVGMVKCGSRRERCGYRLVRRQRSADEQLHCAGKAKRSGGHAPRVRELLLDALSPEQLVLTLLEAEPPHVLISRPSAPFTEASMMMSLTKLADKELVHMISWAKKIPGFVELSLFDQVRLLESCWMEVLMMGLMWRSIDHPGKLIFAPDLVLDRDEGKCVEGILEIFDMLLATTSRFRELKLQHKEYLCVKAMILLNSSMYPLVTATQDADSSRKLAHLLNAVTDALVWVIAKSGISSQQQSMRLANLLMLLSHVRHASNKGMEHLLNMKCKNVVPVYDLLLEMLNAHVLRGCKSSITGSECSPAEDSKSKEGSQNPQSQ

For Cc1nnc(N2C(=O)c3oc4ccccc4c(=O)c3C2c2ccco2)s1 (stereo unspecified), the IC50 (Estrogen receptor beta) was 0.0501 µM (not active), the IC50 [1] was > 66 µM (inactive) and the IC50 [2] was > 66 µM (inactive).

For O=C(Nc1ccc(Cl)cc1-c1nc2ccccc2s1)c1ccco1, the CC50 (Vero) was 13.3 µM (active).

In the case of O=C(O)CC/C(=N/NC(=O)c1cccs1)c1ccccc1, the IC50 (Leucine aminopeptidase) is reported as 36 µM (active).

For O=C(O)COc1ccc(Br)cc1/C=C1/SC(=O)N(CC(=O)N2CCCC2)C1=O, the IC50 (Leucine aminopeptidase) was 34.8 µM (active).

With COc1ccc(Br)cc1S(=O)(=O)Nc1cnc2ccccc2c1 the IC50 [3] was > 100 µM (not active).

With Cc1ccc(C(=O)Nc2nc(=O)n(C(=O)CC(C)C)s2)cc1 the IC50 (Leucine aminopeptidase) was 24.5 µM (active).

For CN1CCN(c2nc3ccccc3nc2C(C#N)S(=O)(=O)c2ccccc2)CC1 (stereo unspecified), the EC50 [4] was > 120 µM (not active), the EC50 [5] was > 120 µM (not active) and the CC50 (Vero) was 4.16 µM (active). The EC50 [6] was 18.8 µM (active).

For Cc1ccc(C)c(Nc2cc(C)nc3ccccc23)c1, the CC50 [7] was 16.9 µM (active) and the EC50 [8] was > 50 µM (active).

With COCC(=O)NC[C@H]1[C@@H](c2ccc(C3=CCCC3)cc2)[C@@H](CO)N1C(=O)C1CC1 the AC50 [9] was 9.14 µM (active).

For CCCN(CCC)CCCN=C(S)Nc1ccc2nc(N3CCN(CC)CC3)cc(C)c2c1, the AC50 [10] was 5.26 µM (active) and the AC50 [11] was > 20 µM (inactive).

In the case of CN(C)CCn1cnc2c(c1=N)C(c1ccccc1)c1ccc3ccccc3c1O2 (stereo unspecified), the EC50 [4] is reported as > 120 µM (not active), the EC50 [5] is reported as 0.18 µM (active) and the EC50 [6] is reported as > 120 µM (not active). The IC50 [12] was > 20 µM (inactive) and the AC50 [10] was 23.6 µM (active).

For O=C1C(Cl)=C(N2CCN(c3ccccc3)CC2)C(=O)N1c1ccc(C(F)(F)F)cc1, the IC50 [3] was > 50 µM (inconclusive).

For Cc1cc(C)nc(SCC(=O)Nc2sc3c(c2C#N)CCC(C)C3)n1 (stereo unspecified), the EC50 [8] was > 50 µM (active).

In the case of COc1ccc(-n2cnc3c(sc4nc(N5CCOCC5)c5c(c43)CCCC5)c2=O)cc1, the EC50 [8] is reported as > 50 µM (active).

In the case of CCn1cc(-c2cc(C(F)(F)F)n3nc(C(=O)O)cc3n2)c(C)n1, the IC50 (Estrogen receptor beta) is reported as 3.41 µM (not active).
